Laboratory results as given in patent publication US20200038641A1, “DRUG DELIVERY DEVICE WITH REMOVABLE PODS AND RELATED PODS, METHODS AND SYSTEMS” (priority 2017, published 2020).
In brackets after ≈: the same amount, converted by molar mass. Read-outs that look alike come from different tables or passages of the source. One block for each compound: values may come before it.

Columns and labels:
[1] = women, after 7 days of IVR use
Description: The trial consisted of an open-label, crossover design where six participants sequentially used a TDF pod-IVR for seven days followed by a TDF-FTC pod-IVR, with a washout period of at least 14 days between each treatment period. Women who were clinically deemed eligible returned to the clinic for IVR insertion visit (Visit 1, TDF IVR; Visit 5, TDF-FTC IVR) after cessation of menses. Women returned for Visit 2 (TDF IVR) or Visit 6 (TDF-FTC IVR) on Day 2 (±1 d) after IVR insertion and for Visit 3 (TDF IVR) or Visit 7 (TDF-FTC IVR) on Day 7 (±1 d) when the IVRs were removed. At Visit 3/7, vaginal biopsies were obtained, and the IVRs were collected. Tissue samples were ultimately reported as ng/mg or fmol/mg, respectively, following normalization to net biopsy or Dacron swab weight.

[2] = cited from earlier work
[3] = sheep, in vivo
Description: FIG. 15 illustrates a graph of cervicovaginal lavage concentration (median+SD) of estonogestrel (1510) and ethiny estradiol (1505) delivered simultaneously via combination pod IVRs over 28 days in sheep (n=3). Inverted triangles: estonogestrel; Diamonds: ethiny estradiol.
FIG. 15 illustrates a graph of ETG-EE release: ETG (1510); EE (1505). The pod-in-rings for this example delivered etonogestrel (ETG) and […]. The silicone pod IVRs contained two pods of EE at 16 mg API per pod (32 mg drug per ring) and ETG at 10 mg API per pod (20 mg drug per ring). Median ETG CVL levels (13±6.9 nM) were 8 times higher than the corresponding […] levels (1.6±1.2 nM), in agreement with the relative daily release rates of ETG and EE from the NuvaRing® (120 μg day^−1 and 15 μg day^−1, respectively). Plasma levels were not measured, the preliminary results should imply a match for in vivo and in vitro release compared to Nuvaring®.

[4] = systemic delivery; cited from earlier work
[5] = beyond 190° C.; cited from earlier work
HSV = assay: Inhibition of HSV infection by acyclovir, dose-response curve; type: cell-based; conditions: drug added at the time of HSV challenge and in the overlay medium; read-out: concentration of acyclovir that inhibits infection by 50% (IC50)
Description: The concentration of acyclovir that inhibits infection by 50% (IC50) when drug was added at the time of HSV challenge and in the overlay medium was ˜700 ng/mL.
In FIG. 16, panel A (1605), the percentage inhibition of HSV infection was determined in the presence of increasing concentrations of acyclovir (ACV). In panel B (1610) the percentage inhibition of HSV infection was determined in the presence of the indicated CVL sample or control fluid. Results are means from duplicate wells and each participant is represented by a different symbol (1615); the horizontal lines (1620) indicate the medians for the groups. In panel C (1625), the relationship between drug levels and percentage inhibition was determined by the Spearman correlation coefficient. Filled circles (1630) represent CVL samples obtained 24 h after oral VCV dosing, and open circles (1635) are CVL samples obtained 7 days after ring insertion.

vaginal biopsy homogenate tissue levels [1]: high enough for PrEP action
SMILES: CC(Cn1cnc2c(N)ncnc21)OCP(=O)(O)OP(=O)(O)OP(=O)(O)O (stereo in doubt) [TFV-DP, Tenofovir diphosphate]

SMILES: C#C[C@]1(O)CC[C@H]2[C@@H]3CCc4cc(O)ccc4[C@H]3CC[C@@]21C [EE, Ethinyl Estradiol]
solubility in water [2]: highly hydrophobic

ETG CVL levels relative to estradiol (E2) levels [3]: 8 times
SMILES: C#C[C@]1(O)CC[C@H]2[C@@H]3CCC4=CC(=O)CC[C@@H]4[C@H]3C(=C)C[C@@]21CC [ETG, Etonogestrel]
solubility in water [2]: highly hydrophobic

vaginal biopsy homogenate tissue levels [1]: high enough for PrEP action
SMILES: Nc1nc(=O)n([C@@H]2CS[C@H](CO)O2)cc1F [FTC, Emtricitabine]

SMILES: Cc1nc(N(C)C(=O)Cc2ccc(-c3ccccn3)cc2)sc1S(N)(=O)=O [Pritelivir]
solubility in water [2]: insoluble in water | solubility in water ([2]; listed as pritelivir): low solubility | toxicity when delivered systemically [4]: significant toxicity

SMILES: Nc1nc2c(ncn2COCCO)c(=O)[nH]1 [acyclovir]
solubility in water [2]: extremely water soluble | thermal stability [5]: higher thermal stability even beyond 190 °C | IC50 (HSV): ~0.7 mg/L (≈ 3.11 µM)

SMILES: CCNC(=O)[C@@H]1CCCN1C(=O)[C@H](CCCNC(=N)N)NC(=O)[C@H](CC(C)C)NC(=O)[C@@H](CC(C)C)NC(=O)[C@H](Cc1ccc(O)cc1)NC(=O)[C@H](CO)NC(=O)[C@H](Cc1c[nH]c2ccccc12)NC(=O)[C@H](Cc1c[nH]cn1)NC(=O)[C@@H]1CCC(=O)N1 [leuprolide]
thermal stability [5]: not heat-stable beyond 190 °C

SMILES: C[C@@H](O)[C@@H]1NC(=O)[C@H](CCCCN)NC(=O)[C@@H](Cc2c[nH]c3ccccc23)NC(=O)[C@H](Cc2ccccc2)NC(=O)[C@@H](NC(=O)[C@H](N)Cc2ccccc2)CSSC[C@@H](C(=O)N[C@H](CO)[C@@H](C)O)NC1=O [octreotide]
solubility in water [2]: very soluble
